# Columns and labels:
# pulmonary arteries = test: U46619 contractile responses of pulmonary arteries; details: control mice (normoxic), FIG. 9a
# aorta = test: U46619 contractile responses of aorta; details: control mice (normoxic), FIG. 9a
smiles,measurement,setting,value
"CCCCC[C@H](O)/C=C/[C@@H]1[C@@H](C/C=C\CCCC(=O)O)[C@H]2CO[C@@H]1C2 [U46619, 9,11-Dideoxy-9α,11α-methanoepoxy prostaglandin F2α]",contraction of the pulmonary artery,pulmonary arteries,less contraction
same,contraction of the aorta,aorta,significant contraction

# — patent US10245244B2, “Pharmaceutical formulations for the treatment of pulmonary arterial hypertension” (HEART BIOTECH PHARMA LIMITED, priority 2014, dated 2019)
